Results published in US20080009418A1, “Selective Inhibitors” (Alchemia LTD., priority 2004, published 2008).

What was measured:
Conditions in all cases: compound at 10 μM
[1] = molecular target: T1, Human δ-opioid (DOP) (Homo sapiens, UniProt P41143); assay: Radioligand binding, human δ-opioid (DOP) membranes, FlashPlate, [3H]-Bremazocine
T1 construct: purchased Perkin Elmer Biosignal
How it was run: (§1)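 Cloned human receptor membranes were coated onto FlashPlate wells and incubated with radioligand and compound (added from a 0.5 mM DMSO daughter plate) for 1 hour at room temperature in the dark. Scintillation counting gave percent inhibition, with DMSO defining total and reference ligand defining non-specific binding.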

[2] = molecular target: T2, Human κ-Opioid (KOP) (Homo sapiens, UniProt P41145); assay: Radioligand binding, human κ-opioid (KOP) membranes, filtration, [3H]-Diprenorphine
T2 construct: purchased Perkin Elmer Biosignal
T2 sequence (P41145 whole entry): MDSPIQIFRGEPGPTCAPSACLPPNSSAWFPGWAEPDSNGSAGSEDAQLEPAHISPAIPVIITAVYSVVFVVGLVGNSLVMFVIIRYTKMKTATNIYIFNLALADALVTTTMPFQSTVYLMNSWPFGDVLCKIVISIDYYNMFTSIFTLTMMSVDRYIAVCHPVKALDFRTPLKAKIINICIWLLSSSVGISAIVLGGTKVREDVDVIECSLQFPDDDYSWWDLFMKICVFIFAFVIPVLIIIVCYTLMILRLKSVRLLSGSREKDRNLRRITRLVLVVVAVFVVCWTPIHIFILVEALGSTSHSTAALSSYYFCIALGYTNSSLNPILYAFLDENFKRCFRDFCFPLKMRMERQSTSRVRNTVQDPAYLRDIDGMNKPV
How it was run: (§2)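 Membranes from cloned human receptors were incubated with compound and radioligand for 1 hour at room temperature. Bound ligand was collected on 0.3% PEI-soaked filters, washed with cold 50 mM Tris-HCl pH 7.4, and counted by scintillation. Percent inhibition was computed against DMSO totals and reference-ligand nonspecific wells.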

[3] = molecular target: T3, Human Melanocortin (MC3) (Homo sapiens, UniProt P41968); assay: Radioligand binding, human melanocortin MC3 membranes, FlashPlate, [125I]-NDP-αMSH
T3 construct: purchased Perkin Elmer Biosignal
T3 sequence (P41968 whole entry): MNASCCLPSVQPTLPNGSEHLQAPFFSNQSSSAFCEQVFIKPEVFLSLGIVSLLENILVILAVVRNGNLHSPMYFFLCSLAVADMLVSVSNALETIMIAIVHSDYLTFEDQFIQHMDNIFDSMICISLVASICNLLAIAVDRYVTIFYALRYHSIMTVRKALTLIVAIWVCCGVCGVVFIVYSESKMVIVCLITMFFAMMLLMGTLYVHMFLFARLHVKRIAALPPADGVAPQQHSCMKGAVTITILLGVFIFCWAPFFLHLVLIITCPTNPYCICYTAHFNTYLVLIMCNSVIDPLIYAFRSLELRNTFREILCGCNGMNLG
How it was run: as §1

[4] = molecular target: T4, Human Melanocortin (MC4) (Homo sapiens, UniProt P32245); assay: Radioligand binding, human melanocortin MC4 membranes, FlashPlate, [125I]-NDP-αMSH
T4 construct: purchased Perkin Elmer Biosignal
T4 sequence (P32245 whole entry): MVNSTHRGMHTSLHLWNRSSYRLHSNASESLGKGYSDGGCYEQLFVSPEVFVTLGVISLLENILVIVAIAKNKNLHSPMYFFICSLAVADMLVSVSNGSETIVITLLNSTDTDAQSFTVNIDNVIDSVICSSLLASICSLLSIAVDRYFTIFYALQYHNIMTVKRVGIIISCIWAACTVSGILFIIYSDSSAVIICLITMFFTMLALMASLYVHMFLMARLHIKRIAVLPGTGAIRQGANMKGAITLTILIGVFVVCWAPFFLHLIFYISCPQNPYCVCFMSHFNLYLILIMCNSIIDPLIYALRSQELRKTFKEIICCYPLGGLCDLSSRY
How it was run: as §1

[5] = molecular target: T5, Human melanocortin (MC5) (Homo sapiens, UniProt P33032); assay: Radioligand binding, human melanocortin MC5 membranes, FlashPlate, [125I]-NDP-αMSH
T5 construct: purchased Perkin Elmer Biosignal
T5 sequence (P33032 whole entry): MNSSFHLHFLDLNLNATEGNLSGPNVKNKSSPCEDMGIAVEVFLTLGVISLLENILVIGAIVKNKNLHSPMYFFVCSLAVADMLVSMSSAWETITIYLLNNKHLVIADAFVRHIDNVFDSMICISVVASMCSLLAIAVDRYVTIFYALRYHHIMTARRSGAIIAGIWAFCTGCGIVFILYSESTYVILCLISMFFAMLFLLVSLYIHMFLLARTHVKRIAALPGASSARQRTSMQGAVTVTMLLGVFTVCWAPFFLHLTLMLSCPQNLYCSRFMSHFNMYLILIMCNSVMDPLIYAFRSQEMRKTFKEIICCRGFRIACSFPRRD
How it was run: as §1

[6] = molecular target: T6, Human melanin-concentrating hormone (MCH1) (Homo sapiens, UniProt Q99705); assay: Radioligand binding, human melanin-concentrating hormone MCH1 membranes, FlashPlate, [125I]-S36057
T6 construct: purchased Perkin Elmer Biosignal
T6 sequence (Q99705 whole entry): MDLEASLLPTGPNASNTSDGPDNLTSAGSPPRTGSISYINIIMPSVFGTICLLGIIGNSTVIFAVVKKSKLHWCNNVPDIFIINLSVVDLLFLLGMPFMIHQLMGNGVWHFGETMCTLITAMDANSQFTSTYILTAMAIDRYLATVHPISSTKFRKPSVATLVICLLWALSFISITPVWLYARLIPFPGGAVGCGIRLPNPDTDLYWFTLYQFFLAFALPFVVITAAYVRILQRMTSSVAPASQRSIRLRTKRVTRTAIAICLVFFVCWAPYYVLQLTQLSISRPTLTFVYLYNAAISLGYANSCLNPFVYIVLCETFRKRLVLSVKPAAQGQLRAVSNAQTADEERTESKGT
How it was run: as §1

[7] = molecular target: T7, Human μ-opioid (MOP) (Homo sapiens, UniProt P35372); assay: Radioligand binding, human μ-opioid (MOP) membranes, FlashPlate, [3H]-Naloxone
T7 construct: purchased Perkin Elmer Biosignal
T7 sequence (P35372 whole entry): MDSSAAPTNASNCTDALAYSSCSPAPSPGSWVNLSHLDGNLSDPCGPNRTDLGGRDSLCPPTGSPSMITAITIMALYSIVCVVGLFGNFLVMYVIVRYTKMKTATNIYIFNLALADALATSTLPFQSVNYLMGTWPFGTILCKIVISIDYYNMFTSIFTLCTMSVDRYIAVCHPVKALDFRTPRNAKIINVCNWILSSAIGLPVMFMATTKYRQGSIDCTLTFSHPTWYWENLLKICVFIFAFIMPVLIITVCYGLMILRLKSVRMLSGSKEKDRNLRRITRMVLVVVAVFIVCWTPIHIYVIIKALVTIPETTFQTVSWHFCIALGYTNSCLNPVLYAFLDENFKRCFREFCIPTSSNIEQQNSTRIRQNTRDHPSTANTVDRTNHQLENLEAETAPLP
How it was run: as §1

[8] = molecular target: T8, Human neurokinin (NK1) (Homo sapiens, UniProt P25103); assay: Radioligand binding, human neurokinin NK1 membranes, filtration, [125I]-Substance P
T8 construct: purchased Perkin Elmer Biosignal
T8 sequence (P25103 whole entry): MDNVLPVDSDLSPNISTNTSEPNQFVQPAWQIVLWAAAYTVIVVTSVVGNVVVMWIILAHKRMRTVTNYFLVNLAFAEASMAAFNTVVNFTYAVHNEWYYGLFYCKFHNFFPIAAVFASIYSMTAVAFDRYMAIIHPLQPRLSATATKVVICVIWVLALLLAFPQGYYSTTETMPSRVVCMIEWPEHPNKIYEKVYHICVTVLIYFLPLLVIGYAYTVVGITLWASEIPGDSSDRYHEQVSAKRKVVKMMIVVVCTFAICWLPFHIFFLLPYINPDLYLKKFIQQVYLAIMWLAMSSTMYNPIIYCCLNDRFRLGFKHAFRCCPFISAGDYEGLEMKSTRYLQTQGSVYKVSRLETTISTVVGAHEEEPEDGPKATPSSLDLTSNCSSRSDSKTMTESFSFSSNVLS
How it was run: as §2

[9] = molecular target: T9, Human neuropeptide Y (NPY-Y1) (Homo sapiens, UniProt P25929); assay: Radioligand binding, human neuropeptide Y NPY-Y1 membranes, FlashPlate, [125I]-PYY
T9 construct: purchased Perkin Elmer Biosignal
T9 sequence (P25929 1-384): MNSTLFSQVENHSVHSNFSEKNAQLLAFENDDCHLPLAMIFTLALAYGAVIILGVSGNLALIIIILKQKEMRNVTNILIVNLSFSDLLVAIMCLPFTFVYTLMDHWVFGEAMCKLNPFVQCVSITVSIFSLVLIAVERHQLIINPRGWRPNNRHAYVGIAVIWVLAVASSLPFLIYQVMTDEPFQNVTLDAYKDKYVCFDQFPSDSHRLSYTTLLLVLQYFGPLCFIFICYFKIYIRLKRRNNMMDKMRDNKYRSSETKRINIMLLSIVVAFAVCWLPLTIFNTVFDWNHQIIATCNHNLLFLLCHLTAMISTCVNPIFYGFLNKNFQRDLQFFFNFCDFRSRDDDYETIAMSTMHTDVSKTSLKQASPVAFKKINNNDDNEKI
How it was run: as §1

[10] = molecular target: T10, Human opioid (ORL1) (Homo sapiens, UniProt P41146); assay: Radioligand binding, human opioid ORL1 membranes, FlashPlate, [125I]-Nociceptin
T10 construct: purchased Perkin Elmer Biosignal
T10 sequence (P41146 whole entry): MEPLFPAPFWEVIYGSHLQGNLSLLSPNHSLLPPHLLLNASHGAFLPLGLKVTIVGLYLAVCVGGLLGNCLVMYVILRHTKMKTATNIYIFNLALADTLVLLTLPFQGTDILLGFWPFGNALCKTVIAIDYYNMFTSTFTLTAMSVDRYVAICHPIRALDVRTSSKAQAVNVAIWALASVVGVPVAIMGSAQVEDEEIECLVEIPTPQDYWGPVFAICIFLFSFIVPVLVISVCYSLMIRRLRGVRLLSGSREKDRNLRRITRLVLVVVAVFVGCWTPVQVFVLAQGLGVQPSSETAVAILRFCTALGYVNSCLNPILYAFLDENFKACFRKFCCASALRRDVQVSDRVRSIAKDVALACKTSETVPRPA
How it was run: as §1

[11] = molecular target: T11, Mouse urotensin (mUR2) (Mus musculus, UniProt Q8VIH9); assay: Radioligand binding, mouse urotensin mUR2 membranes, FlashPlate, [125I]-Urotensin II
T11 construct: purchased Perkin Elmer Biosignal
T11 sequence (Q8VIH9 1-385): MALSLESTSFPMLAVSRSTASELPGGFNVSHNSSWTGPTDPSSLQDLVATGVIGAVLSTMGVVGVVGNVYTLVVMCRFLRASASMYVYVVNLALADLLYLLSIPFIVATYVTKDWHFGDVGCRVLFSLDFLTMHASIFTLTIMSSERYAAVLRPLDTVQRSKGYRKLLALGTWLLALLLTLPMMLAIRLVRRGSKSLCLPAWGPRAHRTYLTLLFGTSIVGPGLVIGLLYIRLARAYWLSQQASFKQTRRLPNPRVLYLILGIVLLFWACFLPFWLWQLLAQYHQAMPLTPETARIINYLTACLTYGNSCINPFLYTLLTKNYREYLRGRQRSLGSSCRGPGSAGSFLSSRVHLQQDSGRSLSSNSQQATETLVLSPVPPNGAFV
How it was run: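 Cloned mouse urotensin (mUR2) receptor membranes from Perkin Elmer Biosignal were immobilized in FlashPlate microplates using a proprietary coating. Each well got 19.5 μl buffer, then 0.5 μl of DMSO, reference ligand, or compound. Adding 5 μl of [125I]-Urotensin II, diluted to 5× final concentration in binding buffer, started binding. Plates were sealed with TopSeal-A and incubated 1 hour at room temperature in the dark. Wells were counted for 30 seconds each on a TopCount after a 60-second delay, and percentage inhibition was calculated.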

T1 sequence (P41143 whole entry): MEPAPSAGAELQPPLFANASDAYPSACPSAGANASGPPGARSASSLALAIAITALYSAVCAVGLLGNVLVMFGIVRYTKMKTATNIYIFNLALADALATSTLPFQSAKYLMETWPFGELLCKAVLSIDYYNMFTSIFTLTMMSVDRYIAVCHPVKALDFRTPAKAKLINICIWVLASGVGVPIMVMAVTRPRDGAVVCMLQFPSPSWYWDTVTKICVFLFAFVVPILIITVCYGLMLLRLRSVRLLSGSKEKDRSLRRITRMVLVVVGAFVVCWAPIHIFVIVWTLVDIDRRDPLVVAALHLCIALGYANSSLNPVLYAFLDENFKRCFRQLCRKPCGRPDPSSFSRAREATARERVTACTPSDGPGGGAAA

For `CO[C@H]1[C@H](O)[C@@H](COCc2ccc(Cl)cc2)OC(OCc2ccc(Cl)cc2)[C@@H]1NC(=O)CCCN` (stereo partly shown) [compound 107], the “A1 radioligand binding, percentage inhibition” value ([1]; [3H]-Bremazocine) was “− (“−” indicates less than 50% inhibition at 10 μM)”, the “A2 radioligand binding, percentage inhibition” value ([2]; [3H]-Diprenorphine) was “− (“−” indicates less than 50% inhibition at 10 μM)” and the “A3 radioligand binding, percentage inhibition” value ([3]; [125I]-NDP-αMSH) was “− (“−” indicates less than 50% inhibition at 10 μM)”. For the same molecule, the “A4 radioligand binding, percentage inhibition” value ([4]; [125I]-NDP-αMSH) was “+ (“+” indicates greater than 50% inhibition at 10 μM)”, the “A5 radioligand binding, percentage inhibition” value ([5]; [125I]-NDP-αMSH) was “+ (“+” indicates greater than 50% inhibition at 10 μM)” and the “A6 radioligand binding, percentage inhibition” value ([6]; [125I]-S36057) was “− (“−” indicates less than 50% inhibition at 10 μM)”. The “A7 radioligand binding, percentage inhibition” value ([7]; [3H]-Naloxone) was “− (“−” indicates less than 50% inhibition at 10 μM)”, the “A8 radioligand binding, percentage inhibition” value ([8]; [125I]-Substance P) was “+ (“+” indicates greater than 50% inhibition at 10 μM)” and the “A9 radioligand binding, percentage inhibition” value ([9]; [125I]-PYY) was “− (“−” indicates less than 50% inhibition at 10 μM)”. For the same molecule, the “A10 radioligand binding, percentage inhibition” value ([10]; [125I]-Nociceptin) was “− (“−” indicates less than 50% inhibition at 10 μM)” and the “A11 radioligand binding, percentage inhibition” value ([11]; [125I]-Urotensin II) was “− (“−” indicates less than 50% inhibition at 10 μM)”.
`COC[C@H]1OC(OCc2ccc(-c3ccccc3)cc2)[C@H](NC(=O)CNC(=N)N)[C@@H](OCc2ccc(-c3ccccc3)cc2)[C@@H]1O` (stereo partly shown) [compound 1] was tested, and the “A1 radioligand binding inhibition” value ([1]; human δ-opioid (DOP) membranes) was “− (“−” indicates less than 50% inhibition at 10 μM)”, the “A2 radioligand binding inhibition” value ([2]; human κ-opioid (KOP) membranes) was “− (“−” indicates less than 50% inhibition at 10 μM)” and the “A3 radioligand binding inhibition” value ([3]; human melanocortin MC3 membranes) was “+ (“+” indicates greater than 50% inhibition at 10 μM)”. The “A4 radioligand binding inhibition” value ([4]; human melanocortin MC4 membranes) was “+ (“+” indicates greater than 50% inhibition at 10 μM)”, the “A5 radioligand binding inhibition” value ([5]; human melanocortin MC5 membranes) was “+ (“+” indicates greater than 50% inhibition at 10 μM)” and the “A6 radioligand binding inhibition” value ([6]; human MCH1 membranes) was “+ (“+” indicates greater than 50% inhibition at 10 μM)”. For the same molecule, the “A7 radioligand binding inhibition” value ([7]; human μ-opioid (MOP) membranes) was “− (“−” indicates less than 50% inhibition at 10 μM)”, the “A8 radioligand binding inhibition” value ([8]; human neurokinin NK1 membranes) was “+ (“+” indicates greater than 50% inhibition at 10 μM)” and the “A9 radioligand binding inhibition” value ([9]; human NPY-Y1 membranes) was “− (“−” indicates less than 50% inhibition at 10 μM)”. For the same molecule, the “A10 radioligand binding inhibition” value ([10]; human ORL1 membranes) was “− (“−” indicates less than 50% inhibition at 10 μM)” and the “A11 radioligand binding inhibition” value ([11]; mouse urotensin mUR2 membranes) was “− (“−” indicates less than 50% inhibition at 10 μM)”.
`CO[C@H]1[C@H](O)[C@@H](COCc2cccc(O)c2)OC(OCc2ccc(-c3ccccc3)cc2)[C@@H]1NC(=O)CCCN` (stereo partly shown) [compound 148] was tested, and the “A1 radioligand binding, percentage inhibition” value ([1]; [3H]-Bremazocine) was “− (“−” indicates less than 50% inhibition at 10 μM)”, the “A2 radioligand binding, percentage inhibition” value ([2]; [3H]-Diprenorphine) was “− (“−” indicates less than 50% inhibition at 10 μM)” and the “A3 radioligand binding, percentage inhibition” value ([3]; [125I]-NDP-αMSH) was “− (“−” indicates less than 50% inhibition at 10 μM)”. The “A4 radioligand binding, percentage inhibition” value ([4]; [125I]-NDP-αMSH) was “− (“−” indicates less than 50% inhibition at 10 μM)”, the “A5 radioligand binding, percentage inhibition” value ([5]; [125I]-NDP-αMSH) was “− (“−” indicates less than 50% inhibition at 10 μM)” and the “A6 radioligand binding, percentage inhibition” value ([6]; [125I]-S36057) was “− (“−” indicates less than 50% inhibition at 10 μM)”. For the same molecule, the “A7 radioligand binding, percentage inhibition” value ([7]; [3H]-Naloxone) was “− (“−” indicates less than 50% inhibition at 10 μM)”, the “A8 radioligand binding, percentage inhibition” value ([8]; [125I]-Substance P) was “+ (“+” indicates greater than 50% inhibition at 10 μM)” and the “A9 radioligand binding, percentage inhibition” value ([9]; [125I]-PYY) was “− (“−” indicates less than 50% inhibition at 10 μM)”. The “A10 radioligand binding, percentage inhibition” value ([10]; [125I]-Nociceptin) was “− (“−” indicates less than 50% inhibition at 10 μM)” and the “A11 radioligand binding, percentage inhibition” value ([11]; [125I]-Urotensin II) was “− (“−” indicates less than 50% inhibition at 10 μM)”.
`N=C(N)NCC(=O)N[C@H]1C(OCc2ccc(Cl)cc2)O[C@H](COCc2ccc(Cl)cc2)[C@@H](O)[C@@H]1OCc1ccc2ccccc2c1` (stereo partly shown) [compound 515] was tested, and the “A1: inhibition of radioligand binding, human δ-opioid (DOP)” value ([1]; [3H]-Bremazocine) was “− (“−” indicates less than 50% inhibition at 10 μM)”, the “A2: inhibition of radioligand binding, human κ-opioid (KOP)” value ([2]; [3H]-Diprenorphine) was “− (“−” indicates less than 50% inhibition at 10 μM)” and the “A3: inhibition of radioligand binding, human melanocortin (MC3)” value ([3]; [125I]-NDP-αMSH) was “+ (“+” indicates greater than 50% inhibition at 10 μM)”. The “A4: inhibition of radioligand binding, human melanocortin (MC4)” value ([4]; [125I]-NDP-αMSH) was “+ (“+” indicates greater than 50% inhibition at 10 μM)”, the “A5: inhibition of radioligand binding, human melanocortin (MC5)” value ([5]; [125I]-NDP-αMSH) was “+ (“+” indicates greater than 50% inhibition at 10 μM)” and the “A6: inhibition of radioligand binding, human melanin-concentrating hormone (MCH1)” value ([6]; [125I]-S36057) was “+ (“+” indicates greater than 50% inhibition at 10 μM)”. The “A7: inhibition of radioligand binding, human μ-opioid (MOP)” value ([7]; [3H]-Naloxone) was “− (“−” indicates less than 50% inhibition at 10 μM)”, the “A8: inhibition of radioligand binding, human neurokinin (NK1)” value ([8]; [125I]-Substance P) was “+ (“+” indicates greater than 50% inhibition at 10 μM)” and the “A9: inhibition of radioligand binding, human neuropeptide Y (NPY-Y1)” value ([9]; [125I]-PYY) was “− (“−” indicates less than 50% inhibition at 10 μM)”. The “A10: inhibition of radioligand binding, human opioid (ORL1)” value ([10]; [125I]-Nociceptin, 10 µM) was “+ (“+” indicates greater than 50% inhibition at 10 μM)” and the “A11: inhibition of radioligand binding, mouse urotensin (mUR2)” value ([11]; [125I]-Urotensin II) was “− (“−” indicates less than 50% inhibition at 10 μM)”.
In the case of `COCC1OC(OCc2ccccc2)C(NC(=O)CCCNC(=N)N)C(OCc2ccccc2)C1O` (stereo not shown) [compound 175], the “A1 radioligand binding, percentage inhibition” value ([1]; [3H]-Bremazocine) is reported as “− (“−” indicates less than 50% inhibition at 10 μM)”, the “A2 radioligand binding, percentage inhibition” value ([2]; [3H]-Diprenorphine) is reported as “− (“−” indicates less than 50% inhibition at 10 μM)” and the “A3 radioligand binding, percentage inhibition” value ([3]; [125I]-NDP-αMSH) is reported as “− (“−” indicates less than 50% inhibition at 10 μM)”. For the same molecule, the “A4 radioligand binding, percentage inhibition” value ([4]; [125I]-NDP-αMSH) was “− (“−” indicates less than 50% inhibition at 10 μM)”, the “A5 radioligand binding, percentage inhibition” value ([5]; [125I]-NDP-αMSH) was “− (“−” indicates less than 50% inhibition at 10 μM)” and the “A6 radioligand binding, percentage inhibition” value ([6]; [125I]-S36057) was “− (“−” indicates less than 50% inhibition at 10 μM)”. The “A7 radioligand binding, percentage inhibition” value ([7]; [3H]-Naloxone) was “− (“−” indicates less than 50% inhibition at 10 μM)”, the “A8 radioligand binding, percentage inhibition” value ([8]; [125I]-Substance P) was “+ (“+” indicates greater than 50% inhibition at 10 μM)” and the “A9 radioligand binding, percentage inhibition” value ([9]; [125I]-PYY) was “− (“−” indicates less than 50% inhibition at 10 μM)”. For the same molecule, the “A10 radioligand binding, percentage inhibition” value ([10]; [125I]-Nociceptin) was “− (“−” indicates less than 50% inhibition at 10 μM)” and the “A11 radioligand binding, percentage inhibition” value ([11]; [125I]-Urotensin II) was “− (“−” indicates less than 50% inhibition at 10 μM)”.
